Positions of bridges follow the written chain, without caps; N, C: chain ends. Non-standard residues stand in square brackets, D forms with d. Residues, ends and D or L forms follow the SMILES beside them. αAllylPro = C=CC[C@@]1(C(=O)O)CCCN1; S5 = C=CCCC[C@](C)(N)C(=O)O
Assays:
[1] = CHI Log D measurement (chromatographic hydrophobicity index)
Description: Finally, to measure hydrophobicity, a CHI Log D measurement assay was employed. […] The retention time measurements were performed using reverse-phase HPLC and Q-Exactive mass spectrometer with Phenomenex Gemini C-18 column (3 uM, 50×3 mm). The reverse-phase chromatography was performed using a gradient of 10 mM ammonium acetate at pH=7.4 and acetonitrile solvents. Using the identical solvent setup, gradient, and flowrate, ProLock stapled peptides were injected onto the column to determine the tR of peptides. Using the calibration curve shown in FIG. 7, tR is converted into CHI. CHI was converted into CHI Log D using the following equation.

[2] = in vitro; parameters: dose or concentration left out as unconfirmed; settings: PAMPA
Description: (§1) The synthesized peptides were first analyzed with a PAMPA assay. […] The PAMPA plate system is composed of two compartments, donor and acceptor, which are separated by a phospholipid-infused membrane. The amount of compound transferred from the acceptor well into the donor well over a period of incubation time is used to determine the passive permeability of a compound.
(§2) The two plates are separated by a membrane infused with phospholipids. […] The amount of compound transferred from one well to the other is usually quantified by reverse-phase HPLC-mass spectrometry.
(§3) Briefly, all PAMPA assays were performed using the commercially available PAMPA plate system from Corning, which uses a proprietary membrane composed of structured phospholipids. […] To prevent nonspecific peptide loss to the plates, the acceptor wells of the Corning PAMPA plates were blocked overnight with 5% nonfat milk with 0.1% Triton X-100 in Dulbecco's phosphate buffer saline (DPBS) at pH=7.4, followed by extensive washing prior to assays. The donor wells and membrane itself were not exposed to the milk/Triton solution. […] The PAMPA experiments described herein were performed using plates from Corning Lot #9112010, Lot #9112011 and Lot #7317005 (Corning Inc., Corning, New York, USA).
(§4) To set up PAMPA assays, the PAMPA plate system was equilibrated at room temperature for at least an hour before setting up the assay. The acceptor plate preincubated with milk blocking solution was washed with water, followed by DPBS buffer. 300 μL of 5% DMSO in DPBS at pH=7.4 was added to the pre-blocked acceptor plate, and 200 μL of 10M compounds made with 5% DMSO in DPBS at pH=7.4 was added to the donor plate. The donor plate with a lid was then carefully inserted into the acceptor plate with no bubbles formed at the interface of donor and acceptor plates. The PAMPA assay plate was covered with aluminum foil and placed in a 37° C. incubator for 5 hours. 10 M input solution of all compounds was diluted 20-fold to a final acetonitrile concentration of 50% before analyzing by reverse-phase HPLC and Q-Exactive plus mass spectrometer. At the end of 5 hours, PAMPA donor and acceptor plates were separated and diluted 20-fold and 2-fold respectively to a final acetonitrile concentration of 50%. The diluted solutions of PAMPA donor and acceptor plates were analyzed by reverse-phase HPLC and Q-Exactive plus mass spectrometer.
(§5) Pe measures the passive permeability of each compound tested in the PAMPA assay, whereas % retention measures the amount of compound retained in solution at the end of the assay compared to the input sample.

[3] = parameters: PAMPA Pe: dose or concentration left out as unconfirmed; settings: for % Retention: PAMPA; for PAMPA Pe: 5 h, pH 7.4
Description: as §1, §2, §3, §4, §5
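For % Retention in this document: Phospholipid-membrane PAMPA, donor and acceptor in DPBS pH 7.4 with 5% DMSO, 37 °C for 5 h, compound in each well quantified by reverse-phase HPLC-MS.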
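For PAMPA Pe in this document: Phospholipid-membrane PAMPA, donor and acceptor in DPBS pH 7.4 with 5% DMSO, 37 °C for 5 h, compound in each well quantified by reverse-phase HPLC-MS.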
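For Papp in this document: Phospholipid-membrane PAMPA, donor and acceptor in DPBS pH 7.4 with 5% DMSO, 37 °C for 5 h, compound in each well quantified by reverse-phase HPLC-MS.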

Compound	chromatographic logD ([1]; pH 7.4)	Papp at 5 h ([2]; pH 7.4, PAMPA Pe) [×10⁻⁶ cm/s]	% Retention [3] [%]	logD ([1]; pH 7.4)	CHI Log D compared to the parent ProLock stapled peptide ([1]; result in words)	Papp at 5 h ([2]; pH 7.4, average effective permeability (Pe) of control on accepted PAMPA plates) [×10⁻⁶ cm/s]	PAMPA Pe [3]
CNC(=O)[C@H](Cc1ccc(O)cc1)NC(=O)[C@@H](NC(=O)[C@H](CC(C)C)NC(=O)[C@H](CC(C)C)NC(=O)[C@H](CC(N)=O)NC(=O)[C@]1(C)CCCC=CC[C@]2(CCCN2)C(=O)N[C@@H](CCCCN)C(=O)N[C@@H](CC(C)C)C(=O)N1)[C@@H](C)O (single isomer, unassigned) [PLL4-5 variant 1, H-PL3-Lys-Leu-S5-Asn-Leu-Leu-Thr-Tyr-NHMe]	1.5	≤ 0.1	52 ± 8	–	–	–	–
CC(=O)N1CCC[C@]12CC=CCCC[C@@](C)(C(=O)N[C@@H](CC(N)=O)C(=O)N[C@@H](CC(C)C)C(=O)N[C@@H](CC(C)C)C(=O)N[C@H](C(=O)N[C@@H](Cc1ccc(O)cc1)C(N)=O)[C@@H](C)O)NC(=O)[C@H](CC(C)C)NC(=O)[C@H](CCCCN)NC2=O (single isomer, unassigned) [PLL4-5 variant 3, Ac-PL3-Lys-Leu-S5-Asn-Leu-Leu-Thr-Tyr-NH2]	1.6	0.4 ± 0.1	78 ± 8	–	–	–	–
CCCC[C@H](NC(=O)[C@H](CC(C)C)NC(=O)[C@]1(C)CCCC=CC[C@]2(CCCN2C(C)=O)C(=O)N[C@@H](C)C(=O)N[C@@H](CC(C)C)C(=O)N1)C(=O)N[C@@H](CC(C)C)C(=O)N[C@@H](C)C(=O)N[C@@H](Cc1ccc(O)cc1)C(=O)NC (single isomer, unassigned) [PLL4-6, Ac-PL3-Ala-Leu-S5-Leu-Nle-Leu-Ala-Tyr-NHMe]	4	≤ 0.1	48 ± 3	–	–	–	–
CCCC[C@@H]1NC(=O)[C@H](CC(C)C)NC(=O)[C@]2(CC=CCCC[C@@](C)(C(=O)N[C@@H](CC(C)C)C(=O)N[C@@H](CC(C)C)C(=O)N[C@@H](Cc3c[nH]cn3)C(=O)N[C@@H](Cc3ccc(O)cc3)C(=O)NC)NC1=O)CCCN2C(C)=O (single isomer, unassigned) [PLL4-9, Ac-PL3-Leu-Nle-S5-Leu-Leu-His-Tyr-NHMe]	3.3	≤ 0.1	43 ± 3	–	–	–	–
CNC(=O)[C@H](CC(=O)O)NC(=O)[C@H](CC(C)C)NC(=O)[C@H](CC(C)C)NC(=O)[C@H](Cc1ccc(O)cc1)NC(=O)[C@]1(C)CCCC=CC[C@]2(CCCN2)C(=O)N[C@@H](CC(C)C)C(=O)N[C@@H](CC(C)C)C(=O)N1 (single isomer, unassigned) [PLL4-10 variant 1, H-PL3-Leu-Leu-S5-Tyr-Leu-Leu-Asp-NHMe]	2.2	0.3 ± 0.1	66 ± 2	–	–	–	–
CC(=O)N1CCC[C@]12CC=CCCC[C@@](C)(C(=O)N[C@@H](Cc1ccc(O)cc1)C(=O)N[C@@H](CC(C)C)C(=O)N[C@@H](CC(C)C)C(=O)N[C@@H](CC(=O)O)C(N)=O)NC(=O)[C@H](CC(C)C)NC(=O)[C@H](CC(C)C)NC2=O (single isomer, unassigned) [PLL4-10 variant 3, Ac-PL3-Leu-Leu-S5-Tyr-Leu-Leu-Asp-NH2]	2.2	0.3 ± 0.1	106 ± 2	–	–	–	–
CNC(=O)[C@H](CC(=O)O)NC(=O)[C@H](CC(=O)O)NC(=O)[C@H](CC(C)C)NC(=O)[C@H](CC(C)C)NC(=O)[C@H](Cc1ccc(O)cc1)NC(=O)[C@]1(C)CCCC=CC[C@]2(CCCN2)C(=O)N[C@@H](CC(C)C)C(=O)N[C@@H](CC(C)C)C(=O)N1 (single isomer, unassigned) [PLL5-2 variant 1, H-PL3-Leu-Leu-S5-Tyr-Leu-Leu-Asp-Asp-NHMe]	1.4	0.4 ± 0.1	69 ± 2	–	–	–	–
CNC(=O)[C@H](CC(=O)O)NC(=O)[C@H](CC(=O)O)NC(=O)[C@H](CC(C)C)NC(=O)[C@H](CC(C)C)NC(=O)[C@H](Cc1ccc(O)cc1)NC(=O)[C@]1(C)CCCC=CC[C@]2(CCCN2C(C)=O)C(=O)O[C@@H](CC(C)C)C(=O)N[C@@H](CC(C)C)C(=O)N1 (single isomer, unassigned) [PLL5-2 variant 2, Ac-PL3-Lec-Leu-S5-Tyr-Leu-Leu-Asp-Asp-NHMe]	–	≤ 0.1	47 ± 6	1.9	–	–	–
CNC(=O)[C@H](CC(=O)O)NC(=O)[C@H](CCC(N)=O)NC(=O)[C@H](CC(C)C)NC(=O)[C@H](CC(C)C)NC(=O)[C@H](Cc1ccc(O)cc1)NC(=O)[C@]1(C)CCCC=CC[C@]2(CCCN2)C(=O)N[C@@H](CC2CC2)C(=O)N[C@@H](CC(C)C)C(=O)N1 (single isomer, unassigned) [PLL7-7 variant 1, H-PL3-Cpa-Leu-S5-Tyr-Leu-Leu-Gln-Asp-NHMe]	1.8	0.4 ± 0.1	84 ± 2	–	–	–	–
CNC(=O)[C@H](CC(=O)O)NC(=O)[C@H](CCC(N)=O)NC(=O)[C@H](CC(C)C)NC(=O)[C@H](CC(C)C)NC(=O)[C@H](Cc1ccc(O)cc1)NC(=O)[C@]1(C)CCCC=CC[C@]2(CCCN2C(C)=O)C(=O)O[C@@H](CC(C)C)C(=O)N[C@@H](CC(C)C)C(=O)N1 (single isomer, unassigned) [PLL7-7 variant 2, Ac-PL3-Lec-Leu-S5-Tyr-Leu-Leu-Gln-Asp-NHMe]	2.6	≤ 0.1	64 ± 1	–	–	–	–
CC(=O)N1CCC[C@]12CC=CCCC[C@@](C)(C(=O)N[C@@H](Cc1ccc(O)cc1)C(=O)N[C@@H](CC(C)C)C(=O)N[C@@H](CC(C)C)C(=O)N[C@@H](CCC(N)=O)C(=O)N[C@@H](CC(=O)O)C(N)=O)NC(=O)[C@H](CC(C)C)NC(=O)[C@H](CC1CC1)NC2=O (single isomer, unassigned) [PLL7-7 variant 3, Ac-PL3-Cpa-Leu-S5-Tyr-Leu-Leu-Gln-Asp-NH2]	1.8	0.5 ± 0.1	75 ± 1	–	–	–	–
CNC(=O)[C@H](CC(=O)O)NC(=O)[C@H](Cc1c[nH]cn1)NC(=O)[C@H](CC(C)C)NC(=O)[C@H](CC(C)C)NC(=O)[C@H](CCCNC(=N)N)NC(=O)[C@]1(C)CCCC=CC[C@]2(CCCN2)C(=O)N[C@@H](CC(C)C)C(=O)N[C@@H](CC(C)C)C(=O)N1 (single isomer, unassigned) [PLL7-9 variant 1, H-PL3-Leu-Leu-S5-Arg-Leu-Leu-His-Asp-NHMe]	3.7	≤ 0.1	86 ± 2	–	surprisingly high	–	–
CNC(=O)[C@H](CC(=O)O)NC(=O)[C@H](Cc1c[nH]cn1)NC(=O)[C@H](CC(C)C)NC(=O)[C@H](CC(C)C)NC(=O)[C@H](CCCNC(=N)N)NC(=O)[C@]1(C)CCCC=CC[C@]2(CCCN2C(C)=O)C(=O)O[C@@H](CC(C)C)C(=O)N[C@@H](CC(C)C)C(=O)N1 (single isomer, unassigned) [PLL7-9 variant 2, Ac-PL3-Lec-Leu-S5-Arg-Leu-Leu-His-Asp-NHMe]	2.4	0.3 ± 0.1	82 ± 2	–	–	–	–
CC(=O)N1CCC[C@]12CC=CCCC[C@@](C)(C(=O)N[C@@H](CCCNC(=N)N)C(=O)N[C@@H](CC(C)C)C(=O)N[C@@H](CC(C)C)C(=O)N[C@@H](Cc1c[nH]cn1)C(=O)N[C@@H](CC(=O)O)C(N)=O)NC(=O)[C@H](CC(C)C)NC(=O)[C@H](CC(C)C)NC2=O (single isomer, unassigned) [PLL7-9 variant 3, Ac-PL3-Leu-Leu-S5-Arg-Leu-Leu-His-Asp-NH2]	1.9	0.5 ± 0.1	98 ± 10	–	–	–	–
CNC(=O)[C@H](CC(N)=O)NC(=O)[C@H](CC(N)=O)NC(=O)[C@H](CC(C)C)NC(=O)[C@H](CC(C)C)NC(=O)[C@H](CC1CC1)NC(=O)[C@]1(C)CCCC=CC[C@]2(CCCN2C(C)=O)C(=O)N[C@@H](C)C(=O)N[C@@H](CC(C)C)C(=O)N1 (single isomer, unassigned) [PLL7-11, Ac-PL3-Ala-Leu-S5-Cpa-Leu-Leu-Asn-Asn-NHMe]	2.6	0.9 ± 0.2	103 ± 2	–	–	–	–
CC(=O)N1CCC[C@]12CC=CCCC[C@@](C)(C(=O)N[C@@H](Cc1c[nH]cn1)C(=O)N[C@@H](CC(C)C)C(=O)N[C@@H](CC(C)C)C(=O)N[C@@H](CC(N)=O)C(N)=O)NC(=O)[C@H](CC(C)C)NC(=O)[C@H](C)NC2=O (single isomer, unassigned) [PLL7-20 variant 3, Ac-PL3-Ala-Leu-S5-His-Leu-Leu-Asn-NH2]	2.1	0.5 ± 0.2	76 ± 10	–	–	–	–
CNC(=O)[C@H](Cc1ccc(O)cc1)NC(=O)[C@@H](NC(=O)[C@H](CC(C)C)NC(=O)[C@H](CC(C)C)NC(=O)[C@H](CC(N)=O)NC(=O)[C@]1(C)CCCC=CCCC[C@](C)(NC(C)=O)C(=O)N[C@@H](C)C(=O)N[C@@H](CCCCN)C(=O)N[C@@H](CC(C)C)C(=O)N1)[C@@H](C)O [PLL4-5 variant 4, Ac-S5-Ala-Lys-Leu-S5-Asn-Leu-Leu-Thr-Tyr-NHMe] (Ac-[S5]AKL[S5]NLLTY-NHMe; staple 1-5)	2.2	≤ 0.1	79 ± 3	–	–	–	–
C=CCCC[C@](C)(NC(=O)[C@H](CC(C)C)NC(=O)[C@H](CCCCN)NC(=O)[C@]1(CC=C)CCCN1C(C)=O)C(=O)N[C@@H](CC(N)=O)C(=O)N[C@@H](CC(C)C)C(=O)N[C@@H](CC(C)C)C(=O)N[C@H](C(=O)N[C@@H](Cc1ccc(O)cc1)C(=O)NC)[C@@H](C)O [PLL4-5 variant 5, Ac-PL3-Lys-Leu-S5-Asn-Leu-Leu-Thr-Tyr-NHMe] (Ac-[αAllylPro]KL[S5]NLLTY-NHMe)	2.3	≤ 0.1	73 ± 4	–	–	–	–
CC(=O)CC(c1ccccc1)c1c(O)c2ccccc2oc1=O (stereo not drawn) [Warfarin, reference compound]	–	8.6 ± 0.3	–	–	–	7 to 11	8.6 ± 0.3 (x10^−6) cm/sec
Ac-PL3-Lec-Leu-S5-Tyr-Leu-Leu-Asp-NHMe [PLL4-10 variant 2]	–	–	92 ± 10	–	–	–	≤0.1 (×10^−6) cm/sec

From patent US20230357320A1, “HELICAL STAPLED PEPTIDES AND USES THEREOF” (FOG PHARMACEUTICALS, INC., priority 2020, published 2023)
